Earlier results in patent US20170281596A1, “PHARMACEUTICAL COMBINATION CONTAINING AN ANALGESIC AGENT AND AN ANTISPASMODIC AGENT” (priority 2014, published 2017).

Q: What does the source list for `O=C(c1ccccc1)c1ccc2n1CCC2C(=O)O` (centres unmarked) [Ketorolac, carboxylic acid-5-Benzoyl-2,3-dihydro-1H-pyrrolisine-1,2-amino-2-hydroxymethyl-1,3-propanediol]?
A: time at which the plasma concentration level is reached (administered every 6 hours): 24 h; urinary elimination of Ketorolac and its metabolites (main route of elimination, remainder through feces): 92%
